Reference: paper PMC6520443, “Molecular Fingerprints for a Novel Enzyme Family in Actinobacteria with Glucosamine Kinase Activity” (mBio, 2019)

Tests used:
SjGlcNK = target: T1, SjGlcNK (Streptacidiphilus jiangxiensis, UniProt A0A1H7TQR5); experiment: kinase kinetics, Michaelis-Menten fit; assay type: biochemical; conditions: co-substrate ATP
T1 construct: gene SAMN05414137_114149; recombinant, E. coli BL21(DE3), nickel NTA and size exclusion; monomer in solution; C-lobe residues 194-438
T1 sequence (A0A1H7TQR5 1-438): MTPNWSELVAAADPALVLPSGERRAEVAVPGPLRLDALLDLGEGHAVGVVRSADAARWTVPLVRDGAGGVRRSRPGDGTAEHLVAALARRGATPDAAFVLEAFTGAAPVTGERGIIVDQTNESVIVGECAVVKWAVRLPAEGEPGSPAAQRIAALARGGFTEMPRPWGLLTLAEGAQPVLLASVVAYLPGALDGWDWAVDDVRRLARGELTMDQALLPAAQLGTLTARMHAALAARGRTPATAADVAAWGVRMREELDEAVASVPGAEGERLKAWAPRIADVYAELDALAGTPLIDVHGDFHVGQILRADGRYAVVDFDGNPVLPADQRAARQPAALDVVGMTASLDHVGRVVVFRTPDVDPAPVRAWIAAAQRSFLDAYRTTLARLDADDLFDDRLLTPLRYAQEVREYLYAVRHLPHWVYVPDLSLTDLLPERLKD

MvMak = target: T2, MvMak (Mycolicibacterium austroafricanum, UniProt A1TH50); experiment: ADP-Glo kinase assay, relative activity; assay type: biochemical; conditions: 5 mM sugar, 1 mM ATP, 2 μM enzyme, room temperature, 5 min
T2 construct: gene mak; recombinant, produced as previously described
T2 sequence (A1TH50 whole entry): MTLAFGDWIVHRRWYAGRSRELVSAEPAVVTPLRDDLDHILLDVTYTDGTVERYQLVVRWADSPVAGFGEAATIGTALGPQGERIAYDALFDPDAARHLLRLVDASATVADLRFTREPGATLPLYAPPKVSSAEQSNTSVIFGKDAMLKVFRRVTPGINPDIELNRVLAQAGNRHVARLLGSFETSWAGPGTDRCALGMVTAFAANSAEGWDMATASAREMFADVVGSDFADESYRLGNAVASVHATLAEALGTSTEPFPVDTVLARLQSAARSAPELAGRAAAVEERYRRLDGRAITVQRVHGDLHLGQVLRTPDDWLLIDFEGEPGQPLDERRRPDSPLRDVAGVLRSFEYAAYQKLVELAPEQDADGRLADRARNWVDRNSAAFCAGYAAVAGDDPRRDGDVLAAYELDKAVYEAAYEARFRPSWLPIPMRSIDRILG

Structure (SMILES) | Km (SjGlcNK) [mM] | ADP-Glo kinase assay, relative activity (MvMak)
OC[C@H]1OC(O)[C@H](O)[C@@H](O)[C@@H]1O (some centres unmarked) [glucose] | > 100 | 
OC[C@H]1O[C@H](O[C@H]2[C@H](O)[C@@H](O)C(O)O[C@@H]2CO)[C@H](O)[C@@H](O)[C@@H]1O (some centres unmarked) [maltose] |  | MvMak uses exclusively maltose as the substrate acceptor
